Assays:
MonoMac-6 (MM6) cells = experiment: MonoMac-6 macrophage proliferation assay (WST-1 reagent); assay type: cell-based, human; settings: single drug, 48 hours; for inhibition at 10 µM / inhibition at 30 µM / inhibition at 100 µM: Homo sapiens, MONO-MAC-6, WST-1, mean n=4; for inhibition at 10 µM: final concentration 10 μM; for inhibition at 30 µM: final concentration 30 μM; for inhibition at 100 µM: final concentration 100 μM
Experimental: Cells from the human macrophage cell-line MonoMac-6 (MM6) (Ziegler-Heitbrock et al, Int. J. Cancer, 41, 456 (1988)) were cultured (37° C./5% CO2) in RPMI-1640 medium supplemented with 1 mM sodium pyruvate, 1× nonessential amino acids, 1-100 μg/mL insulin, 1 mM oxalacetic acid, 100 units/mL penicillin, 100 μg/mL streptomycin and 10% (v/v) fetal bovine serum. At the start of the experiment, MM6 cells were seeded in 96-well plates at a density of 1×10^5 cells/mL (100 μl per well). Proliferation of the MM6 cells was measured using the Cell Proliferation Reagent WST-1 (Roche Diagnostics Scandinavia AB, Bromma, Sweden) or by cell counting using a microscope. The WST-1 reagent is designed to be used for spectrophotometric quantification of e.g. cell growth in proliferation assays and was used according to the manufacturers' instructions. The wavelength for measuring absorbance was 450 nm and the absorbance of all untreated control cells exposed to the WST-1 reagent was between 1.0 and 2.5. Stock solutions of ramatroban (sodium salt; ramatroban was purchased from Cayman Chemical, Ann Arbor, Mich., USA as free acid and converted to sodium salt by adding one equivalent of aqueous NaOH) and rosuvastatin (sodium salt; rosuvastatin was extracted and purified from commercially available Crestor® tablets and isolated as sodium salt as described in Bioorganic & Medicinal Chemistry, Vol. 5, No. 5, pp 437-444, 1997) were made in sterile saline.
The effects of ramatroban and/or rosuvastatin (added at the start of the experiments) on MM6 cell proliferation were studied 48 hours after start of the experiments using the WST-1 reagent described above.
The procedure described in Example 19 was repeated for atorvastatin (sodium salt; received as atorvastatin calcium as a gift from Biocon, Ltd., Bangalore, India and converted into sodium salt by firstly converting the calcium salt into the free acid by addition of aqueous hydrochloric acid and then, after isolation via extraction, adding one equivalent of aqueous NaOH).
The procedure described in Example 19 was repeated for simvastatin (sodium salt; simvastatin was received as the lactone as a gift from Biocon, Ltd., Bangalore, India and isolated as the sodium salt following lactone ring opening via hydrolysis using one equivalent of NaOH in water and ethanol at 60° C.).

[1] = test system: Rat aortic smooth muscle cells (RASMC); experiment: Rat aortic smooth muscle cell proliferation assay (WST-1 reagent, 5% FBS stimulated); assay type: cell-based; settings: single drug, 48 hours, F-12/5% FBS; for inhibition at 0.1 µM: final concentration 0.1 μM; for inhibition at 0.1 µM / inhibition at 1 µM / inhibition at 10 µM: mean n=3; for inhibition at 1 µM: final concentration 1 μM; for inhibition at 10 µM: final concentration 10 μM
Experimental: Rat aortic smooth muscle cells (RASMC) were isolated as previously described (Hellin et al, Arterioscler. Thromb. Vasc. Biol., 17, 1977 (1997)). The cells were cultired (37° C./5% CO2) in Ham's medium F-12 supplemented with 10% fetal bovine serum (FBS), 50 μg/mL L-ascorbic acid, 50 μg/mL streptomycin and 50 IU/mL penicillin (F-12/10% FBS), grown to confluence, serially passaged by trypsinization, and used in experiments after 2-7 passages. The RASMC were seeded in 96-well plates at a density of approximately 5×10^3 cells per well in F-12/10% FBS (100 μl per well). After 72 hours, the cells were synchronized in G0/G1 phase by starvation in Ham's medium F-12 supplemented with 0.1% bovine serum albumin (BSA), 50 μg/mL L-ascorbic acid, 50 μg/mL streptomycin and 50 IU/mL penicillin (F-12/0.1% BSA) for 48 hours. After the starvation, the cells were 70-80% confluent. The experiment was then started by changing to F-12 medium containing 5% FBS, 50 μg/mL L-ascorbic acid, 50 μg/mL streptomycin and 50 IU/mL penicillin (F-12/5% FBS), without (positive control cells) or with the test drugs (drug treated cells) as described below. For comparison, some cells remained in F-12/0.1% BSA (negative control cells).
Proliferation of the RASMC cells was measured using the Cell Proliferation Reagent WST-1 (Roche Diagnostics Scandinavia AB, Bromma, Sweden). The WST-1 reagent is designed to be used for spectrophotometric quantification of e.g. cell growth in proliferation assays and was used according to the manufacturers' instructions. The wavelength for measuring absorbance was 450 nm and the absorbance of all untreated positive control cells exposed to the WST-1 reagent was between 1 and 2.7.
Stock solutions of ramatroban (sodium salt; see Example 19 above) and rosuvastatin (sodium salt; see Example 19 above) were made in sterile saline.
48 hours after start of the experiment as described above, the mean positive control RASMC proliferation (measured using the WST-1 reagent) was 225% of that of the negative control RASMC (n=12 in both groups). The effects of ramatroban and/or rosuvastatin (added to cells in F-12/5% FBS at the start of the experiment) on RASMC proliferation were studied 48 hours after start of the experiment.
The procedure described in Example 22 was repeated for atorvastatin (sodium salt; see Example 20 above).
The procedure described in Example 22 was repeated for simvastatin (sodium salt; see Example 21 above).

| SMILES | inhibition at 10 µM (MonoMac-6 (MM6) cells) [%] | inhibition at 30 µM (MonoMac-6 (MM6) cells) [%] | inhibition at 100 µM (MonoMac-6 (MM6) cells) [%] | inhibition at 0.1 µM [1] [%] | inhibition at 1 µM [1] [%] | inhibition at 10 µM [1] [%] | effect on MM6 proliferation (in words) (MonoMac-6 (MM6) cells; 10 μM, data not shown) | inhibition at 100 µM ([1]; final concentration 100 μM, mean n=6) [%] |
| --- | --- | --- | --- | --- | --- | --- | --- | --- |
| CC(C)c1nc(N(C)S(C)(=O)=O)nc(-c2ccc(F)cc2)c1/C=C/[C@@H](O)C[C@@H](O)CC(=O)O [rosuvastatin] | 11.5 | 31.2 | 70.1 | 5.3 | 0 | 21.7 | – | – |
| CC(C)c1c(C(=O)Nc2ccccc2)c(-c2ccccc2)c(-c2ccc(F)cc2)n1CC[C@@H](O)C[C@@H](O)CC(=O)O [atorvastatin] | 16.8 | 27.8 | 71.7 | 27.4 | 0 | 18.9 | – | – |
| O=C(O)CCn1c2c(c3ccccc31)C[C@H](NS(=O)(=O)c1ccc(F)cc1)CC2 [ramatroban] | – | – | 15.2 | – | – | – | effect similar to that of 100 μM of ramatroban | 11.9 |
| CCC(C)(C)C(=O)O[C@H]1C[C@@H](C)C=C2C=C[C@H](C)[C@H](CC[C@@H]3C[C@@H](O)CC(=O)O3)[C@H]21 [simvastatin] | 21.3 | 68.1 | 85 | 23.8 | 0 | 74.3 | – | – |

From patent US20100099693A1, “NEW COMBINATION FOR USE IN THE TREATMENT OF INFLAMMATORY DISORDERS” (priority 2007, published 2010)
